Tested on: BACE expression in transfected INR-32 human neuroblastoma cells
Test: Selection of BACE1 siRNAs: inhibition of BACE expression in transfected cells
Format: cell-based
Details: BACE1 siRNA (75 pmoles) with Oligofectamin reagent

siRNA A5 3: siRNA A5 3 - 3′GCAAGGAGUACAACUAUGAUU 5′, 3′GGAGGGAGCAUGAUCAUUGUU5′ (chemistry not given here)
inhibition of BACE expression: 86.5%

Reference: PMC4266366 (Medical Science Monitor : International Medical Journal of …, 2014)
